The source of these data is ChEMBL document CHEMBL4190325, “[…] Extracts as Tools to Balance Estrogenic and Chemopreventive Activities of Botanicals for Women's Health” (J Nat Prod, 2017).

Assay [1] deals with NAD(P)H dehydrogenase [quinone] 1 (Mus musculus) (UniProt Q64669).
Description: Induction of NQO1 activity in mouse Hepa1c1c7 cells after 48 hrs by MTT reduction assay
Assay [2] is described as follows: cells. The settings on record: Mus musculus, Hepa-1c1c7, 48 h.
Description: Cytotoxicity against mouse Hepa1c1c7 cells after 48 hrs by crystal violet staining based assay
Assay [3] deals with Ishikawa. The experiment in a line: cells. To be noted: Homo sapiens, 96 h.
Description: Cytotoxicity against human Ishikawa cells after 96 hrs by SRB assay
For assay [4], the target named is T1, Estrogen receptor (Homo sapiens, UniProt P03372).
T1 sequence (P03372 whole entry): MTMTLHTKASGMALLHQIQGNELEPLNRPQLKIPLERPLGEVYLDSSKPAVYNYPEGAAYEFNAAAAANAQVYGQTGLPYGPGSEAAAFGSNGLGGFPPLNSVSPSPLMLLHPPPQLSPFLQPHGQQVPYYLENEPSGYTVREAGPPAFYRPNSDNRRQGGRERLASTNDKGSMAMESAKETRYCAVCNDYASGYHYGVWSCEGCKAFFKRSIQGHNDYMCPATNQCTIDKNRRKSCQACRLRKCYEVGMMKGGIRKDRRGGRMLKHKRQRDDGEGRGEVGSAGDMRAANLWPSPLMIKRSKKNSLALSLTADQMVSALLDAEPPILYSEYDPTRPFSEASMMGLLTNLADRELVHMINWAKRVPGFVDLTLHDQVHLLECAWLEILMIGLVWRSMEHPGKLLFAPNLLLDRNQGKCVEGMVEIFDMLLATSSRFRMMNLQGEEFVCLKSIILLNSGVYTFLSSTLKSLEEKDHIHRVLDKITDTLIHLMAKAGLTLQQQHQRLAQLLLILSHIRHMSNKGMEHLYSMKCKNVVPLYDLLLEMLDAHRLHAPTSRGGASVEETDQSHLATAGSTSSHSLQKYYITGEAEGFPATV
The experiment in a line: Estrogenic activity at estrogen receptor alpha in human Ishikawa cells assessed as induction of alkaline phosphatase activity using p-Nitrophenol phosphate as substrate pretreated for 96 hrs followed by substrate addition measured every 15 secs by scanning spectrophotometric analysis. The assay is classed as cell-based.

Sequence of NAD(P)H dehydrogenase [quinone] 1 (Mus musculus) (Q64669 whole entry): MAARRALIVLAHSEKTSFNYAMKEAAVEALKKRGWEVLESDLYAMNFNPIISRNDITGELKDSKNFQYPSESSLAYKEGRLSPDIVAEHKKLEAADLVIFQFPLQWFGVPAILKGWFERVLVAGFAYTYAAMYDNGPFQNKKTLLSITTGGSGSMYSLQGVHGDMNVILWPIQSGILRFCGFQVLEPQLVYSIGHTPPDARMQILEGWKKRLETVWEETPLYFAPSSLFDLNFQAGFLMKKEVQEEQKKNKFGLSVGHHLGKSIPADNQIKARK

Turning to `COc1cc(O)c(CC=C(C)C)c(O)c1C(=O)/C=C/c1ccc(O)cc1` [XANTHOHUMOL], the CD in assay [1] is 1.3 µM. Besides, the IC50 turned out to be 17.5 µM in assay [2] and 4.2 µM in assay [3]. For the same molecule, the EC50 entry in assay [4] (ishikawa) is listed as “Not Active”.
In the case of `CC(C)=CCc1c(O)cc2c(c1O)C(=O)CC(c1ccc(O)cc1)O2` (stereo unspecified), the CD in assay [1] is greater than 30 µM. For the same molecule, the values for the IC50 in assay [2] and in assay [3] were greater than 20 µM and greater than 5 µM, respectively. Besides, in assay [4] (read-out: EC50), the EC50 stood at 400 nM.
On the same counts, the results for `COc1cc(O)c(CC=C(C)C)c2c1C(=O)CC(c1ccc(O)cc1)O2` (stereo unspecified) [ISOXANTHOHUMOL] are greater than 50 µM, 30.7 µM, 24.9 µM and 1400 nM.
In turn, `O=c1cc(-c2ccc(Br)cc2)oc2ccccc12` had a concentration for half-maximal inhibition (IC50) in assay [2] of 0.7 to 166 µM.
In the case of `CC(C)=CCc1c(O)cc(O)c2c1O[C@H](c1ccc(O)cc1)CC2=O`, the CD in assay [1] is greater than 30 µM. Further, the IC50 in assay [2] was greater than 20 µM; in assay [3], 19.1 µM.
